Results as given in PubChem BioAssay AID1963979 (Molecular Pharmacology Branch, DTP, NCI, 2024).
Values joined by “and” are separate entries in the source; they are usually repeats but may differ in a detail not shown here. Equal entries are not always repeated.

Test system: 361931-004-R-J1-PDC multicell spheroid viability
Assay: Anticancer human tumor 361931-004-R-J1-PDC patient-derived colon adenocarcinoma cell line growth inhibition [PI3K]
Details: for viability, T/C: stronger effect = lower value
Summary of the method: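 Agents were dosed from a top concentration near clinical Cmax (otherwise 10 microM) in half-log decrements, alone or combined with PI3K inhibitors. The spheroids contain tumor cells plus endothelial (HUVEC) and MSC stroma; viability is measured.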

[1] = curve of first compound, second compound 0.00316 µM
[2] = curve of first compound, second compound 0.01 µM
[3] = curve of first compound, second compound 0.0316 µM
[4] = curve of first compound, second compound 0.1 µM
[5] = curve of first compound, second compound 0.316 µM
[6] = curve of first compound, second compound 1 µM
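Further: spheroids exposed to agents for seven days before readout.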

In the case of `C[C@@H](NC(=O)c1ncnc(N)c1Cl)c1ncc(C(=O)Nc2cc(C(F)(F)F)c(Cl)cn2)s1` + COc1c(OCCCN2CCOCC2)ccc2c3n(c(=NC(=O)c4cnc(N)nc4)nc12)CCN3, the IC50 [1] is reported as over 10000 nM, the IC50 [2] is reported as over 10000 nM and the IC50 [3] is reported as over 10000 nM. It also gave an IC50 [4] of 5010 nM, an IC50 [5] of 213 nM and an IC50 [6] of under 31.6 nM. It also gave a viability, T/C (second compound 0.00316 µM, first compound 0.0316 µM) of 108%, a viability, T/C (second compound 0.00316 µM, first compound 0.1 µM) of 101% and a viability, T/C (second compound 0.00316 µM, first compound 0.316 µM) of 108%. For the same molecule, the viability, T/C (second compound 0.00316 µM, first compound 1 µM) was 102%, the viability, T/C (second compound 0.00316 µM, first compound 3.16 µM) was 109% and the viability, T/C (second compound 0.00316 µM, first compound 10 µM) was 89.2%. It also gave a viability, T/C (second compound 0.01 µM, first compound 0.0316 µM) of 110%, a viability, T/C (second compound 0.01 µM, first compound 0.1 µM) of 99.9% and a viability, T/C (second compound 0.01 µM, first compound 0.316 µM) of 105%. The viability, T/C (second compound 0.01 µM, first compound 1 µM) was 98%, the viability, T/C (second compound 0.01 µM, first compound 3.16 µM) was 98.4% and the viability, T/C (second compound 0.01 µM, first compound 10 µM) was 89%. It also gave a viability, T/C (second compound 0.0316 µM, first compound 0.0316 µM) of 98.6%, a viability, T/C (second compound 0.0316 µM, first compound 0.1 µM) of 100% and a viability, T/C (second compound 0.0316 µM, first compound 0.316 µM) of 96.6%. It also gave a viability, T/C (second compound 0.0316 µM, first compound 1 µM) of 87.7%, a viability, T/C (second compound 0.0316 µM, first compound 3.16 µM) of 89.2% and a viability, T/C (second compound 0.0316 µM, first compound 10 µM) of 71.2%. For the same molecule, the viability, T/C (second compound 0.1 µM, first compound 0.0316 µM) was 85.9%, the viability, T/C (second compound 0.1 µM, first compound 0.1 µM) was 86.1% and the viability, T/C (second compound 0.1 µM, first compound 0.316 µM) was 91.1%. It also gave a viability, T/C (second compound 0.1 µM, first compound 1 µM) of 71.3%, a viability, T/C (second compound 0.1 µM, first compound 3.16 µM) of 64.5% and a viability, T/C (second compound 0.1 µM, first compound 10 µM) of 31%. For the same molecule, the viability, T/C (second compound 0.316 µM, first compound 0.0316 µM) was 58%, the viability, T/C (second compound 0.316 µM, first compound 0.1 µM) was 54.3% and the viability, T/C (second compound 0.316 µM, first compound 0.316 µM) was 46.5%. For the same molecule, the viability, T/C (second compound 0.316 µM, first compound 1 µM) was 39.9%, the viability, T/C (second compound 0.316 µM, first compound 3.16 µM) was 25.7% and the viability, T/C (second compound 0.316 µM, first compound 10 µM) was 7.73%. It also gave a viability, T/C (second compound 1 µM, first compound 0.0316 µM) of 26.1%, a viability, T/C (second compound 1 µM, first compound 0.1 µM) of 25.8% and a viability, T/C (second compound 1 µM, first compound 0.316 µM) of 17.7%. The viability, T/C (second compound 1 µM, first compound 1 µM) was 11.8%, the viability, T/C (second compound 1 µM, first compound 3.16 µM) was 8.36% and the viability, T/C (second compound 1 µM, first compound 10 µM) was 1.75%.
`CC1(C)CCC(CN2CCN(c3ccc(C(=O)NS(=O)(=O)c4ccc(NCC5CCOCC5)c([N+](=O)[O-])c4)c(Oc4cnc5[nH]ccc5c4)c3)CC2)=C(c2ccc(Cl)cc2)C1` was tested, and the viability, T/C (compound 0.0316 µM) was 100% [middle of 4 runs], the viability, T/C (compound 0.1 µM) was 101% [middle of 4 runs] and the viability, T/C (compound 0.316 µM) was 101% [middle of 4 runs]. The viability, T/C (compound 1 µM) was 102% [middle of 4 runs], the viability, T/C (compound 10 µM) was 3.75% [middle of 4 runs] and the IC50 (curve of compound) was 4940 nM and 4180 nM and 5610 nM.
With `Cn1cnc2c(F)c(Nc3ccc(Br)cc3Cl)c(C(=O)NOCCO)cc21` + COc1c(OCCCN2CCOCC2)ccc2c3n(c(=NC(=O)c4cnc(N)nc4)nc12)CCN3 the IC50 [1] was over 3000 nM, the IC50 [2] was 1950 nM and the IC50 [3] was 718 nM. For the same molecule, the IC50 [4] was 156 nM, the IC50 [5] was 11.4 nM and the IC50 [6] was under 9.49 nM. The viability, T/C (second compound 0.00316 µM, first compound 0.00949 µM) was 104%, the viability, T/C (second compound 0.00316 µM, first compound 0.03 µM) was 99.9% and the viability, T/C (second compound 0.00316 µM, first compound 0.0949 µM) was 92.1%. The viability, T/C (second compound 0.00316 µM, first compound 0.3 µM) was 86.6%, the viability, T/C (second compound 0.00316 µM, first compound 0.949 µM) was 75.6% and the viability, T/C (second compound 0.00316 µM, first compound 3 µM) was 57.5%. It also gave a viability, T/C (second compound 0.01 µM, first compound 0.00949 µM) of 107%, a viability, T/C (second compound 0.01 µM, first compound 0.03 µM) of 101% and a viability, T/C (second compound 0.01 µM, first compound 0.0949 µM) of 88.6%. The viability, T/C (second compound 0.01 µM, first compound 0.3 µM) was 85.6%, the viability, T/C (second compound 0.01 µM, first compound 0.949 µM) was 69% and the viability, T/C (second compound 0.01 µM, first compound 3 µM) was 38.7%. For the same molecule, the viability, T/C (second compound 0.0316 µM, first compound 0.00949 µM) was 102%, the viability, T/C (second compound 0.0316 µM, first compound 0.03 µM) was 93% and the viability, T/C (second compound 0.0316 µM, first compound 0.0949 µM) was 81%. For the same molecule, the viability, T/C (second compound 0.0316 µM, first compound 0.3 µM) was 67.2%, the viability, T/C (second compound 0.0316 µM, first compound 0.949 µM) was 45.3% and the viability, T/C (second compound 0.0316 µM, first compound 3 µM) was 16%. For the same molecule, the viability, T/C (second compound 0.1 µM, first compound 0.00949 µM) was 81.5%, the viability, T/C (second compound 0.1 µM, first compound 0.03 µM) was 69.3% and the viability, T/C (second compound 0.1 µM, first compound 0.0949 µM) was 55.4%. For the same molecule, the viability, T/C (second compound 0.1 µM, first compound 0.3 µM) was 43.1%, the viability, T/C (second compound 0.1 µM, first compound 0.949 µM) was 23.9% and the viability, T/C (second compound 0.1 µM, first compound 3 µM) was 3.88%. The viability, T/C (second compound 0.316 µM, first compound 0.00949 µM) was 50.8%, the viability, T/C (second compound 0.316 µM, first compound 0.03 µM) was 44.9% and the viability, T/C (second compound 0.316 µM, first compound 0.0949 µM) was 28.9%. The viability, T/C (second compound 0.316 µM, first compound 0.3 µM) was 18%, the viability, T/C (second compound 0.316 µM, first compound 0.949 µM) was 4.2% and the viability, T/C (second compound 0.316 µM, first compound 3 µM) was 1.79%. The viability, T/C (second compound 1 µM, first compound 0.00949 µM) was 21.7%, the viability, T/C (second compound 1 µM, first compound 0.03 µM) was 17.9% and the viability, T/C (second compound 1 µM, first compound 0.0949 µM) was 10.1%. The viability, T/C (second compound 1 µM, first compound 0.3 µM) was 3.9%, the viability, T/C (second compound 1 µM, first compound 0.949 µM) was 2.04% and the viability, T/C (second compound 1 µM, first compound 3 µM) was 1.34%.
